The results in this text go back to patent publication US4072757A, “N^2 alkoxynaphthylsulfonyl-L-argininamides and the pharmaceutically acceptable salts thereof” (Mitsubishi Chemical Industries Limited, priority 1974, dated 1978).

In one data set the target is T1, thrombin (Bos taurus, UniProt P00735).
T1 construct: clotting of bovine fibrinogen
The experiment in a line: fibrinogen coagulation time. The class given is biochemical. The note with it: bovine fibrinogen, thrombin 5 units/ml, borate saline buffer pH 7.4, 25° C; normal coagulation time 50-55 seconds to 100-110 seconds; read-out: Concentration required to prolong the coagulation time by a factor of two. The method, then:
The measurement of the fibrinogen coagulation time was conducted as follows:
Immediately after mixing, the reaction mixture was transferred from the ice bath to a bath maintained at 25° C. Coagulation times were taken as the period between the time of transference to the 25° C bath and the time of the first appearance of fibrin threads.
The term "concentration required to prolong the coagulation time by a factor of two" is the concentration of an active ingredient required to prolong the normal coagulation time 50-55 seconds to 100-110 seconds.

The nature of data set [1]: acute toxicity (LD50) by intraperitoneal administration in mice. The note with it: mouse, in vivo, ip, mice (male, 20 g). The method, then:
On the other hand, LD50 values for N^2 -dansyl-N-butyl-L-argininamide and N^2 -dansyl-N-methyl-N-butyl-L-argininamide are 75 and 70 milligrams per kilogram, respectively. The therapeutic agents of this invention may be administered to mammals including humans, alone or in combination with pharmaceutically acceptable carriers, the proportion of which is determined by the solubility and chemical nature of the compound, chosen route of administration and standard pharmaceutical practice. For example, the compounds may be injected parenterally, that is, intramuscularly, intravenously or subcutaneously. For parenteral administration, the compounds may be used in the form of sterile solutions containing other solutes, for example, sufficient saline or glucose to make the solution isotonic. The compounds may be administered orally in the form of tablets, capsules, or granules containing suitable excipients such as starch, lactose, white sugar and the like. The compounds may be administered sublingually in the form of troches or lozenges in which each active ingredient is mixed with sugar or corn syrups, flavoring agents and dyes, and then dehydrated sufficiently to make the mixture suitable for pressing into solid form. The compounds may be administered orally in the form of solutions which may contain coloring and flavoring agents.

As for `COc1ccc2cc(S(=O)(=O)N[C@@H](CCCNC(=N)N)C(=O)N3CCCCC3C(=O)O)ccc2c1` (stereo partly drawn) [Sample 4, 1-[N^2-(6-methoxy-2-naphthylsulfonyl)-L-arginyl]-2-piperidinecarboxylic acid], the IC (2-fold clotting time) at thrombin was found to be 3 µM.

As to `COc1cc2ccc(S(=O)(=O)N[C@@H](CCCNC(=N)N)C(=O)N3CCCCC3C(=O)O)cc2cc1OC` (stereo partly drawn) [Sample 2, 1-[N^2-(6,7-dimethoxy-2-naphthylsulfonyl)-L-arginyl]-2-piperidinecarboxylic acid], the LD50 (usually the dose expected to kill half of the subjects tested) in data set [1] came out at 1500 mg/kg.

For `COc1cc2ccc(S(=O)(=O)N[C@@H](CCCNC(=N)N)C(=O)N3CCC(c4ccccc4)CC3C(=O)O)cc2cc1OC` (stereo partly drawn) [Sample 30, 1-[N^2-(6,7-dimethoxy-2-naphthylsulfonyl)-L-arginyl]-4-phenyl-2-piperidinecarboxylic acid], at thrombin, the IC (2-fold clotting time) was 12 µM.

`COc1cc2ccc(S(=O)(=O)N[C@@H](CCCNC(=N)N)C(=O)N3CCC(C)CC3C(=O)O)cc2cc1OC` (stereo partly drawn) [Sample 5, 1-[N^2-(6,7-dimethoxy-2-naphthylsulfonyl)-L-arginyl]-4-methyl-2-piperidinecarboxylic acid]: the IC (2-fold clotting time) at thrombin came out at 0.4 µM.

Regarding `COc1ccc2cc(S(=O)(=O)N[C@@H](CCCNC(=N)N)C(=O)N3CCC(C)CC3C(=O)O)cc(OC)c2c1` (stereo partly drawn) [Sample 11, 1-[N^2-(4,6-dimethoxy-2-naphthylsulfonyl)-L-arginyl]-4-methyl-2-piperidinecarboxylic acid], the 50% lethal dose (LD50) in data set [1] fell in the range of 670 to 1000 mg/kg. Besides, the IC (2-fold clotting time) on thrombin turned out to be 0.35 µM.

On to `CCCC1CCN(C(=O)[C@H](CCCNC(=N)N)NS(=O)(=O)c2ccc3cc(OC)c(OC)cc3c2)C(C(=O)O)C1` (stereo partly drawn) [Sample 19, 1-[N^2-(6,7-dimethoxy-2-naphthylsulfonyl)-L-arginyl]-4-propyl-2-piperidinecarboxylic acid], for which, at thrombin, the IC (2-fold clotting time) turned out to be 0.5 µM.

Regarding `CCOC(=O)C1CC(C)CCN1C(=O)[C@H](CCCNC(=N)N)NS(=O)(=O)c1ccc2ccc(OC)cc2c1` (stereo partly drawn) [Sample 6, Ethyl 1-[N^2-(7-methoxy-2-naphthylsulfonyl)-L-arginyl]-4-methyl-2-piperidinecarboxylate], in data set [1], the LD50 was 670 to 1000 mg/kg.

For `COc1ccc2ccc(S(=O)(=O)N[C@@H](CCCNC(=N)N)C(=O)N3CCC(C)CC3C(=O)O)cc2c1` (stereo partly drawn) [Sample 7, 1-[N^2-(7-methoxy-2-naphthylsulfonyl)-L-arginyl]-4-methyl-2-piperidinecarboxylicacid], at thrombin, the IC (2-fold clotting time) is 0.15 µM.
